Data set [1] relates to rat mammary tumor. Kind of data set: Biodistribution of 125I-NM324 in rat mammary tumor model. In kind it is in vivo.
Data set [2] has as its target T1, PLC isolated from Bacillus cereus (Bacillus cereus, UniProt P09598).
T1 construct: PLC isolated from Bacillus cereus; endogenous in cells; host or cells: Bacillus cereus
Kind of data set: PLC substrate assay. The format is biochemical. As to the method:
(§1) Formal metabolism studies were conducted on several PLE analogs including NM324, the predecessor of NM404. In these studies, each agent was examined to determine its ability to serve as substrates for enzymes associated with PLE metabolism. Three major enzymatic pathways are involved in the metabolism of PLE. O-Alkyl glycerol monooxygenase (AGMO) is responsible for cleavage of the alkyl ether linkage at C-1 to form either the long chain fatty alcohol or subsequently, the corresponding fatty acid. Phospholipases C (PLC) and D (PLD), on the other hand, give rise to the glycerol or phosphatidic acid products, respectively.

Data set [3] deals with serum proteins. The conditions noted are these: cited from earlier work.
Data set [4] concerns carrageenan-induced granulomas. Description: Uptake into inflammatory lesions. The settings on record: rat, in vivo. Further details: species or system rats. From the text: The utility of tumor tracers like ^67Ga-citrate and ^18F-FDG is limited by their lack of specificity to distinguish neoplasm from inflammation. Further, accumulation of FDG in the urine interferes with visualization of pelvic and abdominal abnormalities. This lack of specificity is a significant clinical issue in patients with cancer. […] Some exemplary embodiments of PLE analogs discussed herein are illustrated in FIG. 1. […] Although FDG-PET has paved the way for hybrid imaging, its lack of tumor cell specificity will always limit its diagnostic efficacy. New molecularly targeted agents, like NM404, which display universal tumor uptake and selective retention regardless of location, as well as selectivity for malignant tumor cells and not inflammatory or hyperplastic lesions, represents a significant improvement in the detection, targeting and characterization of cancer.

Data set [5] has as its system animal tumor models. The conditions noted are these: radioiodinated analogs, xenograft and spontaneous tumor rodent models, previous reports; cited from earlier work.
Data set [6] can be described thus: Blood plasma kinetics. Set-up: species or system rats. The settings on record: rat, in vivo.
The subject of data set [7] is human lung cancer. Description: Clinical evaluation of NM324, scintigraphy. In kind it is in vivo. The settings on record: for tumor uptake / detection: scintigraphy in lung cancer patients. From the text:
FIG. 10 is a scintigraphic image of the anterior chest of Patient 03 acquired at 1, 2, and 6 days after iv administration of 1 mCi ^131I-NM324.
Based upon this work, NM404 [18-(4-iodophenyl)-octadecyl phosphocholine] emerged due to its enhanced ability to localize in tumor, its increased metabolic clearance from the liver, and its longer plasma half-life.

The subject of data set [8] is animal tumor models. Description: Imaging and biodistribution across animal tumor models (general statements). The conditions noted are these: mammary, prostate, squamous cell carcinoma, ovarian, colorectal, melanoma. From the text:
See, for example, U.S. patent application Ser. Nos. 10/906,687, 11/177,740, 11/316,620 and 11/382,645. Due to deficiencies in metabolic phospholipase enzymes in the membranes of malignant tumor cells, the prevailing hypothesis for this specificity is that phospholipid ether analogs become trapped exclusively in tumor cell membranes because of their inability to become metabolized and eliminated by the cancerous cell. Thus, the differential clearance rates of phospholipid ethers from normal cells versus neoplastic tumor cells are responsible for this specificity.
The reason for the retention of PLE and analogs in cancer cells remains unknown. Without being held to any particular theory, however, the prevailing hypothesis, is that radioiodinated PLE and APC analogs become trapped in tumor cell membranes because of their inability to be metabolized and eliminated. On the other hand, such lipid molecules are metabolized and cleared by normal tissues, including the liver.
These PLE analogs are specifically designed to incorporate aromatic radioiodine in order to render the molecule stable towards in vivo deiodination.

Data set [9] has as its target T2, O-Alkyl glycerol monooxygenase (AGMO) (Homo sapiens, UniProt Q6ZNB7).
T2 construct: Using a microsomal AGMO enzyme preparation; from tissue
Description: Microsomal AGMO substrate assay. The format is biochemical. The conditions noted are these: microsomal enzyme preparation. As to the method:
as §1

Data set [10] concerns Prostate MatLyLu. Kind of data set: Gamma camera scintigraphy screen in Dunning R3327 (MAT LyLu) prostate cancer model. In kind it is in vivo, Copenhagen rats. The settings on record: radioiodinated analog 30-40 μCi, images incl. 24 and 48 hours post injection. As to the method:
The avidity of PLE and APC analogs to localize in tumors was evaluated in several animal models. The PC-3 model represents a human tumor cell line that was used to determine the target (tumor) to non-target ratio of NM404 and NM412 in head to head comparison in order to select a candidate for an initial human pharmacokinetic trial in prostate cancer patients. The MatLyLu (Dunning R3327 rat) model, a rat prostate tumor line, was used specifically to screen 9 specific analogs prior to entering them into control for dosimetry and tumor-bearing animals for determining tumor/background ratios. Finally, the Walker-256 carcinosarcoma model was used for quantitative tissue distribution purposes.
In order to expedite the screening process and minimize the number of tumor bearing animals utilized in multiple time point tissue distribution studies, new radioiodinated homologs were imaged by gamma camera scintigraphy in the rat Dunning […] (MAT LyLu strain) prostate cancer model. Thus, male Copenhagen rats received a subcutaneous injection of MAT LyLu cells (1×10^6 cells) in the thigh 10-14 days prior to injection of the radioiodinated PLE analogs (30-40 μCi) in 2% Tween-20 solution. Gamma camera images were obtained at multiple time points including 24 and 48 hours post injection. […] Tissue distribution of radioactivity in rats bearing Walker-256 carcinosarcoma was assessed at various time intervals following intravenous administration of the radioiodinated chain length homologs. The first group of compounds that was tested included three alkylphosphocholines: a shorter chain analog with seven carbons NM396 and two analogs with a longer chain length, 13 (NM397, C15 alkyl chain length) and 1 (NM404, C18 alkyl chain length).
In order to decrease liver uptake and prolong the plasma phase, the inventors examined 9 structural analogs of NM324 to identify agents that would display improved tumor-to-background tissue ratios with decreased liver uptake. The new PLE analogs were synthesized and radiolabeled with ^125I for initial image analysis in Copenhagen rats bearing Dunning R3327 prostate tumors. […] NM404 was therefore selected to undergo further imaging and biodistribution analysis in a variety of animal-tumor models.

Data set [11] has as its system human PC-3 prostate tumor xenografts. Description: Scintigraphy, microPET and tissue distribution in PC-3 tumor model. The conditions noted are these: advanced metastatic PC-3, 48 h post iv injection. In kind it is in vivo, SCID mice.
Data set [12] concerns non-small cell lung cancer (NSCLC). Kind of data set: Initial human pharmacokinetic evaluation, planar gamma-camera scintigraphy. In kind it is in vivo. The conditions noted are these: <1 mCi injection, preliminary, n=3. An excerpt:
FIG. 6A-C images of lung cancer patient, posterior whole body planar nuclear medicine image (A) 4 days after iv administration of ^131I-NM404 (0.8 mCi) to a patient with non small cell lung cancer (6 cm dia., arrow). Lung tumor is easily detected in corresponding axial (B) and coronal (C) computed tomography (CT) scans;
In preparation for human clinical trials, unlabeled NM404 was subjected to independent (University of Buffalo Toxicology Research Center) acute toxicity evaluation at 1200 times the anticipated imaging mass dose in rats and rabbits. […] Due to its selective tumor uptake and retention properties in a variety of rodent tumor models and subsequent excellent safety profile in rats and rabbits, NM404 was selected to undergo initial human pharmacokinetic evaluation in non-small cell lung cancer (NSCLC) patients. Patients underwent planar gamma-camera scintigraphy after receiving an injection of ^131I-NM404 (<1 mCi).

For data set [13] the following is noted: excess boron ingestion; cited from earlier work.

Consider 11 compounds from patent US8022235B2, “Compositions of phospholipid ether boronic acids and esters and methods for their synthesis and use” (Cellectar, Inc., priority 2007, dated 2011).

The structures appear in SMILES notation. “Also recorded” adds a separate entry of the source.

T1 sequence (P09598 39-283 limits assumed): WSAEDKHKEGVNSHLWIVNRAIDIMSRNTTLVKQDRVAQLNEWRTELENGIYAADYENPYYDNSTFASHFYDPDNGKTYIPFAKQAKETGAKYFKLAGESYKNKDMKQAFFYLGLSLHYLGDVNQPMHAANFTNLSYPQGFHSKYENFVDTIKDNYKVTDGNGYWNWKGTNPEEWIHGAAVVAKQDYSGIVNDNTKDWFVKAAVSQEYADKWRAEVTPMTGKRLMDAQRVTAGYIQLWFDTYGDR
T2 sequence (Q6ZNB7 whole entry, species assumed): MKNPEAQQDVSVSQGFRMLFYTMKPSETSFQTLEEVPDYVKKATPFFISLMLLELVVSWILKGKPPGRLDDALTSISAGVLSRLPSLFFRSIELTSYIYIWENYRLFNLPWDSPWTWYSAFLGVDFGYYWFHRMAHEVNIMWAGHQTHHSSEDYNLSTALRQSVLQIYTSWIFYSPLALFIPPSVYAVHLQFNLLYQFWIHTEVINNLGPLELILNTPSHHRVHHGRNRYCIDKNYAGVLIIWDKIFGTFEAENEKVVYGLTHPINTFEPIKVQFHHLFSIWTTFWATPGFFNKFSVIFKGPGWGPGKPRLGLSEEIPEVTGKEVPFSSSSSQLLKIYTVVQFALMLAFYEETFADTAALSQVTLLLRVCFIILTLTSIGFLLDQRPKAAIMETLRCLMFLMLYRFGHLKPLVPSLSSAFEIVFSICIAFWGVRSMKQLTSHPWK

Consider `C[N+](C)(C)CCOP(=O)([O-])OCCCCCCCCCCCCc1cccc([125I])c1` [Compound 125I-NM324], for which, in data set [1] (96 hours), the tumor-to-blood ratio worked out at 8.6. Also, in [1] (rat, in vivo), the “time of maximum tumor-to-normal tissue ratios” value is 96 h.

For the compound `[3H]C(CCCCCC)C([3H])CCCCCCCC(=O)O[C@H](COC(=O)CCCCCCCCCCCCCCC)COP(=O)([O-])OCC[N+](C)(C)C` (stereo partly drawn) [DPPC, 1-palmitoyl-2-[^3H]-palmitoyl-L-3-phosphatidylcholine, reference compound], in [2], the “hydrolysis by PLC” value was “underwent significant hydrolysis”.

Consider `CCCCCCCCCCCCCCCCCCOCC(COP(=O)([O-])OCC[N+](C)(C)C)OC` (stereo not drawn) [ET-18-OCH3], for which, in [3], the “ether lipid bound to HDL” value was “about 6%” and the “ether lipid bound to albumin” value is 71%.

On to `O=C([O-])CC(O)(CC(=O)[O-])C(=O)[O-].[Ga+3]` [Gallium citrate, reference compound], for which, in data set [4], the “uptake and retention in granulomas” value was “concentrate significantly in the granulomatous lesions”.

In the case of `COC(COCCCCCCCCCCCCc1cccc([125I])c1)COP(=O)([O-])OCC[N+](C)(C)C` (stereo not drawn) [NM294], in data set [5], the “selective retention by tumors” value was “selectively retained by a variety of human and animal tumors”.

Take `C[N+](C)(C)CCOP(=O)([O-])OCCCCCCCCCCCCc1cccc(I)c1` [NM324, 12-(m-iodophenyl)dodecyl phosphocholine]: the “elimination half life time in plasma” value in data set [6] came to 2.43 h. Also, the “hydrolysis by PLC” value in data set [2] is listed as “not hydrolyzed”. Moreover, in data set [5], the “selective retention by tumors” value was “selectively retained by a variety of human and animal tumors”. The liver uptake entry in [7] (initial human pharmacokinetic studies) is recorded as “high liver uptake values; also recorded: unacceptable accumulation in liver tissue; also recorded: images were complicated by high liver radioactivity”. Also, the “tumor uptake / detection” value in [7] is given as “detected tumors”. In addition, the “uptake and retention in granulomas” value in data set [4] is “no uptake and retention”. In addition, in data set [8], the “tumor visualization by scintigraphy” value is on record as “successfully visualized”. In addition, the “substrate for AGMO” value in data set [9] is recorded as “not a substrate”.

Take `COC(COCCCCCCCCCCCCCCCCCCc1ccc(I)cc1)COP(=O)([O-])OCC[N+](C)(C)C` (stereo not drawn) [NM410]: the “gamma camera imaging findings (tumor, liver, abdomen)” value in data set [10] is “high hepatic uptake, significant abdominal accumulation and retention or poor tumor uptake and retention; also recorded: high radioactivity levels in the liver and abdomen with little to no uptake of the agent into tumors”.

`C[N+](C)(C)CCOP(=O)([O-])OCCCCCCCCCCCCCCCCCCc1ccc([124I])cc1` [^124I-NM404]: in data set [11], the “microPET uptake in primary tumor and lymph nodes” value is listed as “significant uptake”.

Take `C[N+](C)(C)CCOP(=O)([O-])OCCCCCCCCCCCCc1cccc([131I])c1` [^131I-NM324]: the “tumor uptake / detection” value in data set [7] is recorded as “Uptake is seen in the left lingular lung cancer (T) with increasing tumor-to-background ratios over time”.

For the compound `C[N+](C)(C)CCOP(=O)([O-])OCCCCCCCCCCCCCCCCCCc1ccc([131I])cc1` [^131I-NM404], the “tumor uptake and retention” value in data set [12] is “tumor uptake and prolonged retention in primary lung tumors”.

Consider `OB(O)O` [boric acid], for which, in data set [13], the excretion entry is “excreted rapidly in the urine” and the time to disappearance is given as at most 4 days.
